# Data: patent US11419856B2, “Pharmaceutical combinations for use in the treatment of neoplastic diseases” (Basilea Pharmaceutica International AG, priority 2017, dated 2022)
# Experiments:
# [1] = Tolerability in the MDA-MB-231 xenograft model (body weight, mortalities); conditions: for Final body-weight / Body-weight change: mean ± SD
# Procedure: (§1) The mice were housed on irradiated Enrich-o'Cobs™ Laboratory Animal Bedding in static micro-isolators on a 12-hour light cycle at 20-22° C. (68-72° F.) and 40-60% humidity. Charles River Discovery Services North Carolina (CR Discovery Services) specifically complies with the recommendations of the Guide for Care and Use of Laboratory Animals with respect to restraint, husbandry, surgical procedures, feed and fluid regulation, and veterinary care. The animal care and use program at CR Discovery Services is accredited by the Association for Assessment and Accreditation of Laboratory Animal Care International (AAALAC), which assures compliance with accepted standards for the care and use of laboratory animals. These considerations were taken into account in the way that the dosage regimes were designed and implemented.
# (§2) All doses were adjusted to 10 mL/kg. The control groups received oral doses of vehicle (pH 5 buffered 0.9% NaCl solution). Eribulin was administered i.v. and BAL101553 orally. When eribulin and BAL0101553 were dosed in combination, Eribulin was administered to all groups first followed by BAL0101553 dosing within 30 minutes of the first regimen.
# Body weights were recorded daily for days 1-5 and then twice weekly until the end of the study and tumor volumes were recorded twice weekly until the end of the experiment. These parameters were analyzed and graphically represented by using GraphPad-Prism™ 5 for Windows according to standard procedure. […] Skin and subcutaneous tissue including the tumor cell inoculation site from the flank region were resected, preserved in formalin and embedded in paraffin. Sections of approximately 5 μm were mounted on glass slides and stained with hematoxylin/eosin and were evaluated by a trained pathologist, to identify residual tumor cells at the site of injection, and were being reported as positive for the existence of residual tumor cells or as negative for a complete lack of any evidence of residual tumor cells.
# [2] = tested on: MDA-MB-231 xenograft (human triple negative breast cancer); test: Antitumor efficacy and induction of cures in the MDA-MB-231 xenograft model (Examples 1A, 1B); assay type: in vivo, mouse
# Procedure: as §1, with “Female athymic nude mice (Crl:NU(NCr)-Foxnlnu, Charles River) were used when ten weeks old with a body weight (BW) range of 19.7-27.1 g on Day 1 of the study. The animals were fed ad libitum water (reverse osmosis, 1 ppm Cl) and NIH 31 Modified and Irradiated Lab Diet® consisting of 18.0% crude protein, 5.0% crude fat, and 5.0% crude fiber. The mice” for “The mice”
# The human MDA-MB-231 breast adenocarcinoma cells were grown to mid-log phase in RPMI-1640 medium containing 10% fetal bovine serum, 2 mM glutamine, 100 units/mL sodium penicillin G, 25 μg/mL gentamicin, and 100 μg/mL streptomycin sulfate. The tumor cells were cultured in tissue culture flasks in a humidified incubator at 37° C./5% CO2 and 95% air, harvested during exponential growth and resuspended in cold Phosphate-buffered saline (PBS). Each test animal received a subcutaneous (s.c.) injection of 5×10^6 MDA-MB-231 cells (0.1 mL cell suspension) into the right flank, and tumor growth was monitored as the average tumor size approached the target range of 100-150 mm^3. Tumors were measured (mm) in two dimensions using calipers, and volume was calculated using the formula: Tumor Volume (TV) (mm^3)=(width^2×length)/2. Eighteen days after tumor cell implantation, on Day 1 of the study, mice with individual tumor volumes ranging from 75 to 172 mm^3 were randomized into groups of 8-10 animals, with group mean tumor volumes of 114-124 mm^3.
# BAL0101553 was dissolved in 0.9% NaCl in water buffered to pH 5 with 1% sodium acetate to yield 2, 2.5 and 3 mg/mL dosing solutions, providing 20, 25 and 30 mg/kg dosages, respectively, in 10 mL/kg dosing volumes. Eribulin (purchased from Eisai Co., Lot. No. 6217, 6288, 6289 and 6309) at 0.5 mg/mL concentration was diluted in saline to yield a 0.01, 0.025 and 0.05 mg/mL dosing solutions, providing 0.1, 0.25 and 0.5 mg/kg dosages, respectively, in a dosing volume of 10 mL/kg.
# as §2, with “Groups of mice (n=8-10) bearing MDA-MB-231 tumors were dosed as outlined in the Tables 1 and 3. All” for “All”
# Body weights were recorded daily for days 1-5 and then twice weekly until the end of the study and tumor volumes were recorded twice weekly until the end of the experiment. These parameters were analyzed and graphically represented by using GraphPad-Prism™ 5 for Windows according to standard procedure. […] Tumor free animals at the end of the study time were assessed for residual MDA-MB-231 tumor cells by pathological methods. Skin and subcutaneous tissue including the tumor cell inoculation site from the flank region were resected, preserved in formalin and embedded in paraffin.
# [3] = E1A, Day 25, p.o. 20 mg/kg qd x5/qw D1-D9, 20 mg/kg qd D12-D34
# [4] = E1A, Day 25, p.o. 30 mg/kg qd x5/qw D1-D9, 25 mg/kg qd D12-D34
# [5] = E1B, Day 26, p.o. 20 mg/kg qd D1-D21, 20 mg/kg qd D25-D43
# [6] = Day 26, BAL101553 p.o. 20 mg/kg qd D1-D21, 20 mg/kg qd D25-D43
# [7] = Day 100 (endpoint), BAL101553 p.o. 20 mg/kg qd D1-D21, 20 mg/kg qd D25-D43
# [8] = E1A, Day 85 (endpoint), p.o. 20 mg/kg qd x5/qw D1-D9, 20 mg/kg qd D12-D34
# [9] = E1A, Day 85 (endpoint), p.o. 30 mg/kg qd x5/qw D1-D9, 25 mg/kg qd D12-D34
structure (smiles),measurement,setting,value
"N#CCCNc1nonc1-c1nc2ccccc2n1CC(=O)c1ccc(NC(=O)[C@@H](N)CCCCN)cc1 [BAL101553, (S)-2,6-Diamino-hexanoic acid [4-(2-{2-[4-(2-cyano-ethylamino)-furazan-3-yl]-benzoimidazol-1-yl}-acetyl)-phenyl]-amide]",Final body-weight,[1]; [3],26.6 ± 1.6 g
same,Final body-weight,[1]; [4],25 ± 1.9 g
same,"T/C (TC-BW, body weight)",[1]; [3],1.02
same,"T/C (TC-BW, body weight)",[1]; [4],1.00
same,Body-weight change,"[1]; E1A, day-0 until day-25, p.o. 20 mg/kg qd x5/qw D1-D9, 20 mg/kg qd D12-D34",2.8 ± 0.7 g
same,Body-weight change,"[1]; E1A, day-0 until day-25, p.o. 30 mg/kg qd x5/qw D1-D9, 25 mg/kg qd D12-D34",2.0 ± 0.8 g
same,Mortalities,"[1]; E1A, p.o. 20 mg/kg qd x5/qw D1-D9, 20 mg/kg qd D12-D34",0/8
same,Final body-weight,[1]; [5],25.9 ± 1.4 g
same,"T/C (TC-BW, body weight)",[1]; [5],1.04
same,Body-weight change,"[1]; E1B, day-0 until day-26, p.o. 20 mg/kg qd D1-D21, 20 mg/kg qd D25-D43",2.6 ± 0.7 g
same,Mortalities,"[1]; E1B, p.o. 20 mg/kg qd D1-D21, 20 mg/kg qd D25-D43",0/10
same,# of regressed tumors (total),[2]; [6],1 (10)
same,T/C,[2]; [6],0.12
same,# of confirmed cures (total),[2]; [7],1 (10)
same,# of tumors with TV ≤ 4 mm^3 (total),[2]; [7],0 (10)
same,% cures,[2]; [7],10%
same,# of regressed tumors (total),[2]; [3],0 (8)
same,T/C,[2]; [3],0.21
same,# of regressed tumors (total),[2]; [4],4 (8)
same,T/C,[2]; [4],0.07
same,# of confirmed cures (total),[2]; [8],0 (8)
same,# of tumors with TV ≤ 4 mm^3 (total),[2]; [8],0 (8)
same,% cures,[2]; [8],0%
same,# of confirmed cures (total),[2]; [9],0 (8)
same,# of tumors with TV ≤ 4 mm^3 (total),[2]; [9],0 (8)
same,% cures,[2]; [9],0%
